Results on 8 compounds are retold here after PubChem BioAssay (NCI).

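Briefly, cells in 96-well plates were exposed to five compound concentrations for 48 h, and endpoints were estimated by linear interpolation. TGI: concentration producing complete growth inhibition.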

Some test systems named below: MOLT-4 leukemia; RPMI-8226 leukemia; CAKI-1 renal; IGROV1 ovarian; HCT-116 colon; UACC-257 melanoma; NCI-H226 lung; HL-60(TB) leukemia; SNB-19 CNS; LOX IMVI melanoma; SK-MEL-28 melanoma; K-562 leukemia; EKVX NSCLC; HOP-62 NSCLC; OVCAR-5 ovarian; COLO 205 colon; A498 renal; PC-3 prostate; SR leukemia; MDA-MB-231 breast.
Common to all, as to assay: DTP human tumour cell line panel, 48 h

For the compound `CC(C)NC1CCCCC2c3cc(F)ccc3[C@]12O` (stereo partly drawn), the TGI in the assay on MOLT-4 leukemia, in the assay on RPMI-8226 leukemia, in the assay with CAKI-1 renal, in the assay with IGROV1 ovarian, with HCT-116 colon and with UACC-257 melanoma was > 100 µM throughout. In addition, the concentration for total growth inhibition (TGI) in the assay on NCI-H226 lung, in the assay on HL-60(TB) leukemia, in the assay with SNB-19 CNS, in the assay on LOX IMVI melanoma, in the assay on SK-MEL-28 melanoma and with K-562 leukemia was > 100 µM throughout. For the same compound, the TGI with EKVX NSCLC, in the assay with HOP-62 NSCLC, in the assay on OVCAR-5 ovarian, with COLO 205 colon and in the assay with A498 renal was > 100 µM each time.

With `Cc1cc(N(CCC#N)CCC#N)ccc1/C=C(\NC(=O)/C=C/c1ccccc1)NC(=O)Nc1ccccc1C`, the TGI with MOLT-4 leukemia, with RPMI-8226 leukemia, in the assay on CAKI-1 renal, in the assay with IGROV1 ovarian, in the assay with HCT-116 colon and in the assay with UACC-257 melanoma was > 100 µM throughout. The TGI in the assay on NCI-H226 lung, with HL-60(TB) leukemia, in the assay on SNB-19 CNS, in the assay on LOX IMVI melanoma, in the assay with SK-MEL-28 melanoma and with K-562 leukemia was > 100 µM in each case. The TGI in the assay with EKVX NSCLC, in the assay with OVCAR-5 ovarian, in the assay on COLO 205 colon and with A498 renal was > 100 µM in each case.

Regarding `COc1ccc2c(c1)CC[C@@H]1C2CC[C@]2(C)C(=N\O)/C(=N/O)CC12` (stereo partly drawn), the TGI is 21.1 µM in the assay with MOLT-4 leukemia; 35.2 µM in the assay on RPMI-8226 leukemia; 24.1 µM with CAKI-1 renal; 10 µM in the assay on IGROV1 ovarian; 29.5 µM with HCT-116 colon; 32.9 µM in the assay on UACC-257 melanoma. Also, the total growth inhibition concentration (TGI) in the assay with NCI-H226 lung came to 27.1 µM; in the assay with HL-60(TB) leukemia it was 35.7 µM; with SNB-19 CNS, 32.9 µM; in the assay with LOX IMVI melanoma it was 6.11 µM; with K-562 leukemia, 36 µM; in the assay with EKVX NSCLC it was 38.9 µM. The TGI amounted to 26 µM in the assay on HOP-62 NSCLC, 25.8 µM in the assay on OVCAR-5 ovarian, 31.6 µM in the assay with COLO 205 colon and 34.2 µM with A498 renal.

As for `S=C(Nc1ccc(Cl)cc1)c1ccc(CN2CCCCC2)s1`, the TGI in the assay on PC-3 prostate stood at 73.4 µM; in the assay on MOLT-4 leukemia, 30.5 µM; with RPMI-8226 leukemia it was 20.2 µM; in the assay with SR leukemia, 19.5 µM; in the assay on CAKI-1 renal, 52.1 µM; in the assay with IGROV1 ovarian, 8.82 µM. Besides, the TGI in the assay on HCT-116 colon is 25.5 µM; in the assay with UACC-257 melanoma it was > 100 µM; in the assay with HL-60(TB) leukemia it was 6.97 µM; in the assay with LOX IMVI melanoma it was 6.14 µM; with SK-MEL-28 melanoma it was 37.2 µM; in the assay on K-562 leukemia, 13.9 µM. Further, the TGI was determined as 35.1 µM with EKVX NSCLC, 32.1 µM with OVCAR-5 ovarian, 14.2 µM in the assay on COLO 205 colon and 29 µM in the assay with A498 renal.

Turning to `Nc1cc(N2CCOCC2)nc(=O)n1-c1ccccc1`, the TGI in the assay on PC-3 prostate, in the assay with MOLT-4 leukemia, in the assay with RPMI-8226 leukemia, in the assay with SR leukemia, in the assay on CAKI-1 renal and with IGROV1 ovarian was > 100 µM each time. For the same compound, the TGI in the assay on HCT-116 colon, with UACC-257 melanoma, with NCI-H226 lung, in the assay on HL-60(TB) leukemia, in the assay on SNB-19 CNS and in the assay with LOX IMVI melanoma was > 100 µM throughout. Also, the concentration for total growth inhibition (TGI) with SK-MEL-28 melanoma, in the assay with K-562 leukemia, with EKVX NSCLC, in the assay with HOP-62 NSCLC, with OVCAR-5 ovarian and in the assay on COLO 205 colon was > 100 µM each time. In the assay with A498 renal, the TGI was > 100 µM.

For `CC(=O)CC(=O)ON(C)C(C)=O`, the total growth inhibition concentration (TGI) in the assay on MOLT-4 leukemia, in the assay with RPMI-8226 leukemia, in the assay on SR leukemia, in the assay on CAKI-1 renal, in the assay on IGROV1 ovarian and in the assay with HCT-116 colon was > 100 µM throughout. Also, the TGI in the assay on UACC-257 melanoma is 56.4 µM; in the assay with NCI-H226 lung, > 100 µM; in the assay with HL-60(TB) leukemia, > 100 µM; with SNB-19 CNS, > 100 µM; with LOX IMVI melanoma, > 100 µM; in the assay on SK-MEL-28 melanoma, > 100 µM. In addition, the concentration for total growth inhibition (TGI) with K-562 leukemia, in the assay on HOP-62 NSCLC, in the assay with OVCAR-5 ovarian and in the assay on COLO 205 colon was > 100 µM each time.

Turning to `CC(/C=C/c1ccccc1)=N\N=C(C)\C=C\c1ccccc1`, the concentration for total growth inhibition (TGI) with MOLT-4 leukemia, in the assay with RPMI-8226 leukemia, in the assay on SR leukemia, with IGROV1 ovarian, in the assay with HCT-116 colon and in the assay on UACC-257 melanoma was > 100 µM throughout. The TGI in the assay with NCI-H226 lung, in the assay with HL-60(TB) leukemia, in the assay on LOX IMVI melanoma, in the assay with SK-MEL-28 melanoma, in the assay on K-562 leukemia and with EKVX NSCLC was > 100 µM each time. The total growth inhibition concentration (TGI) in the assay on HOP-62 NSCLC, in the assay on OVCAR-5 ovarian and with A498 renal was > 100 µM in each case.

On to `Cc1ccc2c(=O)cc(-c3cc4ccccc4s3)[nH]c2n1`, for which the TGI in the assay with PC-3 prostate, in the assay with MOLT-4 leukemia, with RPMI-8226 leukemia, in the assay with CAKI-1 renal, in the assay with IGROV1 ovarian and with HCT-116 colon was > 100 µM in each case. In addition, the total growth inhibition concentration (TGI) in the assay on UACC-257 melanoma is > 100 µM; with NCI-H226 lung, 98.6 µM; with HL-60(TB) leukemia it was > 100 µM; in the assay with SNB-19 CNS it was > 100 µM; in the assay with LOX IMVI melanoma, > 100 µM; in the assay on SK-MEL-28 melanoma it was > 100 µM. In addition, the concentration for total growth inhibition (TGI) in the assay with K-562 leukemia, with EKVX NSCLC, in the assay on HOP-62 NSCLC, with OVCAR-5 ovarian, with COLO 205 colon and in the assay on MDA-MB-231 breast was > 100 µM each time.
